According to ChEMBL document CHEMBL1201862, “PubChem BioAssay data set” (2004):
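Where inhibition never reached the appropriate level, the endpoint shown equals the highest concentration tested. Otherwise, values were interpolated linearly from a five-concentration, 48-hour dose response in 96-well plates. At the GI50, growth is halved.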 Calls of active or inactive are those of the source. No stated cut-off is given here; in the data, active = GI50 up to about 1.1 µM and inactive = higher.

Columns and labels:
Experiment in all cases: inhibition of tumour cell growth, NCI panel, 48 h
[1] = tested on: DU-145
[2] = tested on: Hs-578T
[3] = tested on: SNB-75
[4] = tested on: SW-620
[5] = tested on: OVCAR-4
[6] = tested on: LOX IMVI
[7] = tested on: A549
[8] = tested on: SF-539
[9] = tested on: SK-MEL-2
[10] = tested on: IGROV-1
[11] = tested on: NCI-H460
[12] = tested on: T47D
[13] = tested on: COLO 205
[14] = tested on: CAKI-1
[15] = tested on: HCT-116
[16] = tested on: NCI/ADR-RES
[17] = tested on: Malme-3M
[18] = tested on: SN12C
[19] = tested on: HL-60
[20] = tested on: K562
[21] = tested on: SK-MEL-28
[22] = tested on: HCC 2998
[23] = tested on: MDA-MB-231
[24] = tested on: OVCAR-5
[25] = tested on: CCRF-CEM
[26] = tested on: HT-29
[27] = tested on: 786-0
[28] = tested on: SF-268
[29] = tested on: TK-10
[30] = tested on: A498
[31] = tested on: BT-549
[32] = tested on: MDA-N
[33] = tested on: NCI-H226
[34] = tested on: HOP-62
[35] = tested on: SK-MEL-5
[36] = tested on: MOLT-4
[37] = tested on: MCF7
[38] = tested on: ACHN
[39] = tested on: SNB-19
[40] = tested on: KM12
[41] = tested on: UACC-62
[42] = tested on: EKVX
[43] = tested on: UACC-257
[44] = tested on: OVCAR-3
[45] = tested on: M14
[46] = tested on: NCI-H23
[47] = tested on: HOP-92
[48] = tested on: RPMI-8226
[49] = tested on: SR
[50] = tested on: PC-3
[51] = tested on: U-251
[52] = tested on: SF-295
[53] = tested on: MDA-MB-435
[54] = tested on: NCI-H522
[55] = tested on: HCT-15
[56] = tested on: OVCAR-8
[57] = tested on: SK-OV-3
[58] = tested on: RXF 393
[59] = tested on: UO-31

Cn1c2ccc(Cl)cc2c2ccc3c(c21)C(=O)C=CC3=O
GI50 [1]: > 10 µM (inactive)
GI50 [2]: > 10 µM (inactive)
GI50 [3]: > 10 µM (inactive)
GI50 [4]: > 10 µM (inactive)
GI50 [5]: > 10 µM (inactive)
GI50 [6]: > 10 µM (inactive)
GI50 [7]: > 10 µM (inactive)
GI50 [8]: > 10 µM (inactive)
GI50 [9]: > 10 µM (inactive)
GI50 [10]: > 10 µM (inactive)
GI50 [11]: > 10 µM (inactive)
GI50 [12]: > 10 µM (inactive)
GI50 [13]: > 10 µM (inactive)
GI50 [14]: > 10 µM (inactive)
GI50 [15]: > 10 µM (inactive)
GI50 [16]: > 10 µM (inactive)
GI50 [17]: > 10 µM (inactive)
GI50 [18]: > 10 µM (inactive)
GI50 [19]: 8.49 µM (inactive)
GI50 [20]: 9.14 µM (inactive)
GI50 [21]: > 10 µM (inactive)
GI50 [22]: > 10 µM (inactive)
GI50 [23]: > 10 µM (inactive)
GI50 [24]: > 10 µM (inactive)
GI50 [25]: 3.88 µM (inactive)
GI50 [26]: > 10 µM (inactive)
GI50 [27]: > 10 µM (inactive)
GI50 [28]: > 10 µM (inactive)
GI50 [29]: > 10 µM (inactive)
GI50 [30]: > 10 µM (inactive)
GI50 [31]: > 10 µM (inactive)
GI50 [32]: > 10 µM (inactive)
GI50 [33]: > 10 µM (inactive)
GI50 [34]: > 10 µM (inactive)
GI50 [35]: > 10 µM (inactive)
GI50 [36]: 6.44 µM (inactive)
GI50 [37]: > 10 µM (inactive)
GI50 [38]: > 10 µM (inactive)
GI50 [39]: > 10 µM (inactive)
GI50 [40]: > 10 µM (inactive)
GI50 [41]: > 10 µM (inactive)
GI50 [42]: > 10 µM (inactive)
GI50 [43]: > 10 µM (inactive)
GI50 [44]: > 10 µM (inactive)
GI50 [45]: > 10 µM (inactive)
GI50 [46]: > 10 µM (inactive)
GI50 [47]: > 10 µM (inactive)
GI50 [48]: > 10 µM (inactive)
GI50 [49]: > 10 µM (inactive)
GI50 [50]: > 10 µM (inactive)
GI50 [51]: > 10 µM (inactive)
GI50 [52]: > 10 µM (inactive)
GI50 [53]: > 10 µM (inactive)
GI50 [54]: > 10 µM (inactive)
GI50 [55]: > 10 µM
GI50 [56]: > 10 µM (inactive)
GI50 [57]: > 10 µM (inactive)

C=CCNC1=C2C[C@@H](C)C[C@@H](OC)C(OC(=O)CCCN(C)C)[C@H](C)/C=C(\C)[C@@H](OC(N)=O)[C@H](OC)/C=C\C=C(/C)C(=O)NC(=CC1=O)C2=O (stereo partly specified)
GI50 [58]: 3.98 µM (inactive)
GI50 [1]: 5.02 µM (inactive)
GI50 [2]: 17.5 µM (inactive)
GI50 [59]: 13.6 µM (inactive)
GI50 [3]: 10.9 µM (inactive)
GI50 [4]: 4.48 µM (inactive)
GI50 [5]: 9.14 µM (inactive)
GI50 [6]: 10.1 µM (inactive)
GI50 [7]: 3.85 µM (inactive)
GI50 [8]: 6.73 µM (inactive)
GI50 [9]: 12.6 µM (inactive)
GI50 [10]: 8.95 µM (inactive)
GI50 [11]: 2.99 µM (inactive)
GI50 [12]: 11.5 µM (inactive)
GI50 [13]: 2.82 µM (inactive)
GI50 [14]: 12.4 µM (inactive)
GI50 [15]: 7.13 µM (inactive)
GI50 [16]: 21.8 µM (inactive)
GI50 [17]: 4.16 µM (inactive)
GI50 [18]: 2.42 µM (inactive)
GI50 [19]: 5.51 µM (inactive)
GI50 [20]: 4.06 µM (inactive)
GI50 [21]: 13.7 µM (inactive)
GI50 [22]: 4.6 µM (inactive)
GI50 [23]: 5.45 µM (inactive)
GI50 [24]: 15.2 µM (inactive)
GI50 [25]: 8.95 µM (inactive)
GI50 [26]: 2.7 µM (inactive)
GI50 [27]: 12.4 µM (inactive)
GI50 [28]: 12.6 µM (inactive)
GI50 [29]: 11.6 µM (inactive)
GI50 [30]: 13.8 µM (inactive)
GI50 [31]: 13.4 µM (inactive)
GI50 [32]: 7.26 µM (inactive)
GI50 [33]: 14.6 µM (inactive)
GI50 [34]: 9.95 µM (inactive)
GI50 [35]: 2.51 µM (inactive)
GI50 [36]: 5.75 µM (inactive)
GI50 [37]: 2.02 µM (inactive)
GI50 [38]: 7.48 µM (inactive)
GI50 [39]: 13.8 µM (inactive)
GI50 [40]: 4.07 µM (inactive)
GI50 [41]: 12.4 µM (inactive)
GI50 [42]: 13.1 µM (inactive)
GI50 [43]: 12.9 µM (inactive)
GI50 [44]: 3.3 µM (inactive)
GI50 [45]: 8.53 µM (inactive)
GI50 [46]: 6.84 µM (inactive)
GI50 [47]: 17.7 µM (inactive)
GI50 [48]: 6.49 µM (inactive)
GI50 [49]: 2.59 µM (inactive)
GI50 [50]: 4.98 µM (inactive)
GI50 [51]: 10.6 µM (inactive)
GI50 [52]: 7.57 µM (inactive)
GI50 [53]: 10.6 µM (inactive)
GI50 [54]: 8.07 µM (inactive)
GI50 [55]: 6.32 µM
GI50 [56]: 4.1 µM (inactive)
GI50 [57]: 2.37 µM (inactive)
